Test results: patent US20020142436A1, “Human adenylate cyclase and use therefor” (priority 1995, published 2002)
“Also recorded” adds a separate entry of the source. Read-outs that look alike come from different tables or passages of the source.

What was measured:
[1] = test system: HEK293 cells stably expressing AC; assay: cAMP production in HEK293 cell lines stably expressing AC; type: cell-based, human
Experimental: In particular cell lines derived from the human embryonic kidney cell line 293 (HEK293) have been generated and stably express AC. Briefly, the cells were transfected with pcDNA3 containing the full length AC DNA (clone JP 173—see Example 3) and cells were selected on the basis of resistance to G418 antibiotic (0.8 mg/ml) for 4 weeks. Individual clones of resistant cells were expanded and tested for cAMP production in response to CRF and the effects of immunosuppressants were also examined.

[2] = test system: AtT20 cells; assay: CRF-induced cAMP accumulation in AtT20 cells; type: cell-based, mouse
Experimental: Experiments for cAMP were all carried out in Hanks balanced salt solution containing 2 mM CaCl2 and 1 mM MgSO4 buffered with 25 mM HEPES pH 7.4 and supplemented with 0.25% (w/v) of bovine serum albumin. The cells were preincubated in serum free medium for 1 hour, after which blockers of phosphosdiesterase (isobutylmethylxanthine 0.5 mM (IBMX) and/or rolipram 0.1 mM) along with various other treatments were applied for 30 minutes at 37° C. Subsequently the cells were cooled to 22° C. for 5 minutes in a water bath and agonists were added for 10 minutes. The reaction was stopped by the addition of 0.2 mol/l HCl to achieve a final concentration of 0.1 mol/l (Brooker et al, (1979) Adv. in Cyclic Nucl. Res. Vol. 10, G. Brooker, P. Greengard and G. A. Robinson, Raven Press, New York, 2-34).
In some experiments cells were preincubated for 30 minutes in medium containing 2 mmol/l EGTA and no added Ca^2+, supplemented with 5 μmol/l A23187 and 2.5 μmol/l nifedipine in order to deplete rapidly mobilized cellular stores of Ca^2+. […] The rationale for this pretreatment is that calcineurin reportedly influences L-channel activity (Lai et al, (1993) J. Neurochem. 61:1333-1339; and Armstrong et al, (1987) Proc. Natl. Acad. Sci. U.S.A. 84:2518-2522), whereas the treatment regimen used here would make Ca^2+ entry independent of this regulation.
These compounds were made up in ethanol at 10^−3 mol/l and diluted with the incubation medium to the desired final concentrations. In some cases cells were preincubated with L685,818 the structural analogue of FK506 that binds to FKBP-12 and inhibits prolyl-isomerase activity but is devoid of immunosuppressant activity (Dumont et al, (1992) J. Exp. Med. 176:751-760) for 10 minutes before the addition of FK506 for 30 minutes at 37° C.

[3] = biological target: FKBP-12 (Homo sapiens, UniProt P62942); conditions: cited from earlier work
[4] = test system: calcineurin; conditions: cited from earlier work
[5] = test system: calcineurin; assay: calcineurin activity in AtT20 cells (phosphocasein method); type: biochemical, mouse; conditions: 1 μmol/l FK506, phosphocasein
[6] = test system: HEK293 cells; assay: CRF-induced and unstimulated cAMP in HEK293 cells without AC (wild type, sham or pcDNA3 vector); type: cell-based, human; conditions: FK506 2 μmol/l, L-685,818 100 μmol/l
Experimental: Both expression plasmids (10 μg) were transfected into SV40-transformed monkey embryonic kidney (COS-7) cells grown in DMEM and 10% fetal bovine serum to 70% confluency in 75 cm^2 flasks following the double DEAE-dextran transfection protocol (Ishikawa et al, (1992) Nucl. Acids Res. 20:4367), while only AC cDNA was transfected into adenovirus-transformed human embryonic kidney (HEK293) cells as these express endogenous receptors for CRF (F. A. Antoni, unpublished data). In control transfections pcDNA3 vector DNA replaced the AC expression construct. […]

[7] = test system: HEK293 cells transfected with AC; assay: cAMP in HEK293 cells transiently transfected with AC; type: cell-based, human; conditions: L-685,818 100 μmol/l
[8] = test system: HEK293 cells overexpressing human AC9; assay: Ca2+/calcineurin inhibition of cAMP production in HEK293 cells overexpressing human AC9; type: cell-based
Experimental: The complete coding sequence of human AC9 was cloned into the expression vector pcDNA3. This constuct and pcDNA3 (10 μg) were each linearised by PvuI digestion prior to electroporation into HEK293 cells. Stably transfected clones were selected for resistance to G418 (Gibco) at […] in Dulbecco's modified Eagle's medium (DMEM) supplemented with 10% foetal calf serum. A total of 12 clones were expanded and over-expression of human AC9 confirmed in 9 cell lines by immunoblotting using antisera raised against a pentadecapeptide derived from the N-terminus of mouse AC9 (Paterson et al, (1995) Biochem. Biophys. Res. Commun. 214:1000-8). […] Analysis of clone 7 is reported here.
HEK-293 cells display complex intracellular Ca2+ handling mechanisms that may be controlled by cAMP and calcineurin (Lin et al, (1995) Mol. Pharmacol. 47:131-9; Gromada et al, (1995) FEBS Letts. 373:182-6; Querfurth et al, (1998) Biochem J. 334:79-86), and thus complicate the interpretation of the data. Therefore, intracellular stores of Ca^2+ were depleted to reduce the contribution of intracellular Ca^2+ pools to the intracellular free Ca^2+ signal. […] Two different Ca^2+ depletion protocols were used (Antoni et al, (1998) supra). […] The total cAMP content of the cells and the medium was determined after freeze-thawing and acetylation by radioimmunoassay (Antoni et al, (1995) J. Biol. Chem. 270:28055-61).

[9] = test system: AtT20 cells; assay: ACTH release by AtT20 cells; type: cell-based, mouse

Chain of FKBP-12 (P62942 whole entry, species assumed): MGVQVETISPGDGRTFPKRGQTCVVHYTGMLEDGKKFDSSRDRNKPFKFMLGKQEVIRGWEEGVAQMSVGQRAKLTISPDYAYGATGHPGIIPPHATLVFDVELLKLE

With CC[C@@H]1/C=C(\C)[C@@H](O)[C@H](C)C[C@H](OC)[C@H]2O[C@@](O)(C(=O)C(=O)N3CCCC[C@H]3C(=O)O[C@H](/C(C)=C/[C@@H]3CC[C@@H](O)[C@H](OC)C3)[C@H](C)[C@@H](O)CC1=O)[C@H](C)C[C@@H]2OC [L685,818] the “blockade of the FK506 effect on CRF-induced cAMP production” value [1] was “blocked”, the “cAMP formation, compound given alone” value [2] was “no discernible effect” and the “antagonism of the effect of FK506 on CRF-induced cAMP production” value ([2]; 10 nmol/l CRF) was “antagonized”. The “FKBP-12 prolyl isomerase activity” value [3] was “potent inhibitor”, the blockade of calcineurin [4] was “does not block calcineurin” and the blockade of calcineurin ([4]; listed as L-685,818) was “do not inhibit calcineurin”. For the same molecule, the “effect on the inhibition of calcineurin activity by FK506” value [5] was “blocked the inhibitory effect of FK506 on calcineurin-mediated dephosphorylation of phosphocasein”, the “cAMP levels in sham-transfected or pcDNA3-transfected cells” value [6] was “no effect in sham-transfected or pcDNA3-transfected cells” and the “cAMP response to CRF” value ([7]; FK506 2 μmol/l) was “no significant effect on CRF-induced cAMP production; also recorded: no effect on CRF-induced cAMP formation when given alone”. The “blockade of the enhancement of the CRF-induced cAMP response by FK506” value ([7]; 1 nmol/l CRF) was “blocked the enhancement of the response to 1 nmol/l CRF by FK506”, the “cAMP production in hAC9 expressing cells” value [8] was “had no effect on cAMP production” and the “inhibitory effect of Ca2+ on cAMP production” value ([8]; FK506, cyclosporin A, rapamycin 10 μM, L685,818 50 μM, PDE blockers present) was “failed to block the inhibitory action of Ca^2+ on cAMP production”. For the same molecule, the “ACTH secretion, compound given alone” value [9] was “no discernible effect; also recorded: no effect on basal ACTH secretion” and the “antagonism of the effect of FK506 on CRF-induced ACTH release” value ([9]; FK506 0.5 μmol/l) was “prevented”.
